We go through nine molecules from patent publication US9969710B2, “Heteroaryl compounds as IRAK inhibitors and uses thereof” (Merck Patent GmbH, priority 2015, dated 2018).

One series concerns the target T1, IRAK1 (Homo sapiens, UniProt P51617).
T1 construct: His-TEV-IRAK1 (194-712); His (N); TEV cleavage site (N)
The series is described as follows: IRAK1 enzymatic assay (ADP-Glo luminescence). The settings on record: human recombinant His-TEV-IRAK1 (194-712), ATP 1 μM; read-out: IRAK 1 IC50. The series is classed as biochemical. A digest of the protocol: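 His-TEV-IRAK1(194-712) ([…]) preincubated 15 min RT with compounds (10 μM–0.5 nM) in 50 mM Hepes pH 7.0, 10 mM MgCl2, 2 mM DTT, 0.1% BSA. Reaction started with 1 μM ATP, 2 h RT. ADP formed read by ADP-Glo luminescence.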
Background: ADP-Glo turns the ADP formed in a reaction into a luminescent signal.

The target of a further series is T2, IRAK4 (Homo sapiens, UniProt Q9NWZ3).
T2 construct: His-TEV-IRAK4 (1-460); His (N); TEV cleavage site (N)
T2 sequence (Q9NWZ3 1-460): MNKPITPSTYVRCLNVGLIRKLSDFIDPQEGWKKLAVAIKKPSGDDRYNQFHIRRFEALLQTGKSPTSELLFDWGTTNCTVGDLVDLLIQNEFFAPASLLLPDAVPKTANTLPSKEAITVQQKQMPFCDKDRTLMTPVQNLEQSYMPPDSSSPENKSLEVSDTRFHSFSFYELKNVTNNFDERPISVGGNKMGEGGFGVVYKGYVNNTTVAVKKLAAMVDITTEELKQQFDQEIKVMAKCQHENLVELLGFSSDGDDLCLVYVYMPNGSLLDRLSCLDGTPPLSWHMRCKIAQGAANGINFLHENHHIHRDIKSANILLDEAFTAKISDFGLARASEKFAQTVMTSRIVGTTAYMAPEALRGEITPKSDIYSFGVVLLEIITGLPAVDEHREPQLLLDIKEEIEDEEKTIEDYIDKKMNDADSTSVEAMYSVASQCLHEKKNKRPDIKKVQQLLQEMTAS
Put plainly: IRAK4 enzymatic assay (ADP-Glo luminescence). The series is classed as biochemical. Particulars: human recombinant His-TEV-IRAK4 (1-460), STK1-biotin peptide substrate. A digest of the protocol: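 His-TEV-IRAK4(1-460) at […] was preincubated with compound (10 μM to 0.5 nM) for 15 min at RT in 50 mM Hepes pH 7.0 with MgCl2, MnCl2, DTT, BSA and Triton. Reactions with ATP ([…]) and STK1-biotin peptide (300 nM) ran 2 h at RT. ADP formed was read by ADP-Glo luminescence.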

Series [1] has as its system TLR7 induced IL-6 secretion in human mononuclear cells (PBMC's). Put plainly: TLR7 induced IL-6 in human PBMC's. The series is classed as cell-based. Particulars: Homo sapiens, PBMC, TLR7 specific ligand 2 uM overnight, IL-6 AlphaLISA. A digest of the protocol: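 Fresh or frozen healthy-donor PBMCs pre-treated 30 min at 37 °C with compounds (25 uM to 0.4 nM) before overnight (16-18 h) stimulation with TLR7 ligand at 2 uM. IL-6 in supernatant quantified by AlphaLISA.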

Structures are written as SMILES.

T1 sequence (P51617 194-712): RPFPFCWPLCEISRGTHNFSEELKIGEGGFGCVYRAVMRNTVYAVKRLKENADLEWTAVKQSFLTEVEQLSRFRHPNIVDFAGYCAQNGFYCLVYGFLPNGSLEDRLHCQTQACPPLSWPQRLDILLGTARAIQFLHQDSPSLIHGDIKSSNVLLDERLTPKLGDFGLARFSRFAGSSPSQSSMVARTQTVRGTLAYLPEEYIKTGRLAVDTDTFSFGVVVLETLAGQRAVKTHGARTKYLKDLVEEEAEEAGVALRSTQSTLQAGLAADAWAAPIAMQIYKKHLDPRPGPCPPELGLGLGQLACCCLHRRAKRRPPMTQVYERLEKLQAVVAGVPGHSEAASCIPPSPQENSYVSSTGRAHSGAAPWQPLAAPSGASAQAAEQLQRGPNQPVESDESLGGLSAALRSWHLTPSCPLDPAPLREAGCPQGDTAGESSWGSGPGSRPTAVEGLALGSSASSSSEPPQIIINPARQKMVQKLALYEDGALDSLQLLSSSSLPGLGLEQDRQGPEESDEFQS

In the case of `CN1CCC(c2ccc3c(c2)nc(NC(=O)c2cccc(C(F)F)c2)n3CCCO)C1=O` (stereo not drawn) [Compound 24, 3-(difluoromethyl)-N-[1-(3-hydroxypropyl)-5-(1-methyl-2-oxopyrrolidin-3-yl)-1H-1,3-benzodiazol-2-yl]benzamide], the melting point (as a rule, the temperature of the solid-liquid transition) was in the range of 166 to 168 °C. For the same molecule, on IRAK1, the IC50 (in general, the point on the concentration scale where inhibition reaches its midpoint) fell in the range of 100 to 1000 nM. Further, the IC50 on IRAK4 was at most 100 nM. Further, the IC50 in series [1] is at most 100 nM.

Take `CN1CC(c2ccc3c(c2)nc(NC(=O)c2cccc(C(F)(F)F)c2)n3CCCO)C(C)(C)C1=O` (stereo not drawn) [Compound 25, N-[1-(3-Hydroxy-propyl)-5-(1,4,4-trimethyl-5-oxo-pyrrolidin-3-yl)-1H-benzoimidazol-2-yl]-3-trifluoromethyl-benzamide]: the melting point fell in the range of 104 to 106 °C. For the same molecule, the IC50 on IRAK1 is at most 100 nM. For the same molecule, the IC50 at IRAK4 is at most 100 nM. The molecule also had an IC50 in series [1] of 100 to 1000 nM.

`CN1CCOC(c2ccc3c(c2)nc(NC(=O)c2cccc(C(F)F)c2)n3CC(C)(F)CO)C1=O` (stereo not drawn) [Compound 26, 3-Difluoromethyl-N-[1-(2-fluoro-3-hydroxy-2-methyl-propyl)-5-(4-methyl-3-oxo-morpholin-2-yl)-1H-benzoimidazol-2-yl]-benzamide] had a melting point of 118 to 120 °C. The IC50 on IRAK1 was in the range of 100 to 1000 nM. For the same molecule, at IRAK4, the IC50 is at most 100 nM. In series [1], this molecule came in with an IC50 of 100 to 1000 nM.

The molecule `CN1CC(c2ccc3c(c2)nc(NC(=O)c2cccc(C(F)F)c2)n3CCCO)C(C)(C)C1=O` (stereo not drawn) [Compound 27, 3-Difluoromethyl-N-[1-(3-hydroxy-propyl)-5-(1,4,4-trimethyl-5-oxo-pyrrolidin-3-yl)-1H-benzoimidazol-2-yl]-benzamide] showed a melting point of 95 to 96 °C. Further, the IC50 on IRAK1 lay in the range of 100 to 1000 nM. The IC50 on IRAK4 is at most 100 nM. Also, in series [1], the IC50 was 100 to 1000 nM.

Take `CN1CCOC(c2ccc3c(c2)nc(NC(=O)c2cccc(C(F)(F)F)c2)n3CC(C)(F)CO)C1=O` (stereo not drawn) [Compound 28, N-[1-(2-Fluoro-3-hydroxy-2-methyl-propyl)-5-(4-methyl-3-oxo-morpholin-2-yl)-1H-benzoimidazol-2-yl]-3-trifluoromethyl-benzamide]: the melting point fell in the range of 121 to 124 °C. The IC50 on IRAK1 lay in the range of 100 to 1000 nM. Besides, on IRAK4, the IC50 is at most 100 nM. This molecule gave a 50% inhibitory concentration (IC50) in series [1] of at most 100 nM.

Molecule `CN1CCC(C)(c2ccc3c(c2)nc(NC(=O)c2cccc(C(F)(F)F)c2)n3CCCO)C1=O` (stereo not drawn) [Compound 29, N-[5-(1,3-Dimethyl-2-oxo-pyrrolidin-3-yl)-1-(3-hydroxy-propyl)-1H-benzoimidazol-2-yl]-3-trifluoromethyl-benzamide] gave a melting point of 72 to 74 °C. Besides, the IC50 on IRAK1 was 1000 to 10000 nM. On IRAK4, the IC50 was at most 100 nM.

`CN1CCC(C)(c2ccc3c(c2)nc(NC(=O)c2cccc(C(F)F)c2)n3CCCO)C1=O` (stereo not drawn) [Compound 30, 3-Difluoromethyl-N-[5-(1,3-dimethyl-2-oxo-pyrrolidin-3-yl)-1-(3-hydroxy-propyl)-1H-benzoimidazol-2-yl]-benzamide] had a melting point of 78 to 81 °C. The IC50 at IRAK4 is at most 100 nM. This molecule also displayed an IC50 in series [1] of 1000 to 10000 nM.

With `CN1C(=O)CC[C@@]1(C)c1ccc2c(c1)nc(NC(=O)c1cccc(C(F)F)c1)n2CCCO` [Compound 31b, 3-(difluoromethyl)-N-{5-[(2S)-1,2-dimethyl-5-oxopyrrolidin-2-yl]-1-(3-hydroxypropyl)-1H-1,3-benzodiazol-2-yl}benzamide], the IC50 at IRAK1 is 1000 to 10000 nM; at IRAK4, at most 100 nM; in series [1], 1000 to 10000 nM.

In turn, `CN1C(=O)CCC1(C)c1ccc2c(c1)nc(NC(=O)c1cccc(C(F)(F)F)c1)n2CCCO` (stereo not drawn) [Compound 32, N-[5-(1,2-Dimethyl-5-oxo-pyrrolidin-2-yl)-1-(3-hydroxy-propyl)-1H-benzoimidazol-2-yl]-3-trifluoromethyl-benzamide] gave a melting point of 99 to 100 °C. Besides, at IRAK1, the IC50 is 100 to 1000 nM. For the same molecule, the IC50 on IRAK4 was at most 100 nM. The IC50 in series [1] was in the range of 1000 to 10000 nM.
